{
  "source": "patent US20260215420A1",
  "about": "(Solasta Bio Limited, priority 2022, published 2026)",
  "key": {"Myzus persicae": {"tested_on": "Myzus persicae", "experiment": "Leaf dip assay for aphids", "type": "in vivo", "conditions": "unformulated peptide, compared to vehicle and Spirotetramat, up to 120 hours", "description": "Leaf Dip Assay—Aphids or Plutella xylostella Based on IRAC susceptibility test method 019 (https://irac-online.org/methods/aphids-adultnymphs/). Fill a small 4 cm wide 3 cm high dish with a 1% agar solution (ensuring 1 cm gap between the agar and the lid) and leave to set. Dip a 2.5 cm leaf disc into 3 ml of treatment solution allowing the treatment to coat the leaf. Leave the disc to dry for 1 hour and place onto the set agar. Place insects (aphids or Plutella xylostella) onto each of the leaf discs. Each unit is sealed with a close-fitting, ventilated lid. Place the agar dishes in a small plastic tray lined with moist tissue paper and ensure the water trays in the bottom of the incubator are filled with clean water and place within the incubator. An assessment of mortality is made at 72, 96 and 120 hours. Leaf dip assays for aphids were performed with SB-P-65, and compared to a negative control vehicle and a current commercial insecticide Spirotetramat. The activity of SB-P-65 is shown in FIGS. 20 and 21; SB-P-65 has good activity whilst being eco-friendly and targeted to specific pests unlike broad spectrum chemical insecticides such as Spirotetramat. Leaf dip assays for aphids were performed with SB-P-66, and compared to a negative control vehicle and a current commercial insecticide Spirotetramat. […]"}, "[1]": {"experiment": "gut and MT tissue and contents of final-stage P. xylostella larvae in Schneider's medium", "conditions": "Plutella xylostella, 25° C., up to 24 h"}, "Spodoptera frugiperda": {"tested_on": "Spodoptera frugiperda", "experiment": "Lepidoptera mortality assay (artificial diet)", "type": "in vivo", "conditions": "1×10^−4 M in artificial diet, L1 larvae, 168 hrs, compared to vehicle and DDT", "excerpt": "Lepidoptera Mortality Assay Against Spodoptera frugiperda Frontier Lepidoptera Artificial diet was made up by preparing agar at 1% and then mixing it with artificial diet powder. Peptide solution was aliquoted in 10 cells and diet poured straight onto it. The final concentration of the peptide was 1×10^−4 M, and each peptide was aliquoted in 10 cells. Once the diet solidified and cooled down, one L1 larvae was infested in each cell. The trays were sealed with heat and let larva were allowed to develop for 168 hrs. Finally, pupation and mortality were scored for. Lepidoptera mortality assays were performed with SB-P-70, and compared to a negative control vehicle and the insecticide dichlorodiphenyltrichloroethane (DDT). The activity of SB-P-70 is shown in FIG. 32; SB-P-70 has good activity whilst being eco-friendly and targeted to specific pests unlike broad spectrum chemical insecticides such as DDT."}, "[2]": {"type": "in vitro ADME, Plutella xylostella", "description": "Plutella xylostella Tissue Biostability Study of SB-P-70 and SB-P-103\nSB-P-70 and SB-P-103 were incubated with the gut and MT tissue and contents of final-stage P. xylostella larvae in Schneider's medium at 25° C. Control samples were prepared with peptides in Schneider's medium with no tissue and tissue in Schneider's medium with no peptides. The condition of the peptides after incubation with the tissue was assessed by LC-MS at: 4 h; 8 h; 16 h; and 24 h time points (FIGS. 13 and 14).\nIn contrast, SB-P-103 remained 44% intact after 24 h tissue incubation."}, "Plutella xylostella": {"tested_on": "Plutella xylostella", "experiment": "Leaf dip assay for Plutella xylostella", "type": "in vivo", "conditions": "unformulated peptide, compared to vehicle and Chlorantraniliprole", "description": "Leaf Dip Assay—Aphids or Plutella xylostella Based on IRAC susceptibility test method 019 (https://irac-online.org/methods/aphids-adultnymphs/). Fill a small 4 cm wide 3 cm high dish with a 1% agar solution (ensuring 1 cm gap between the agar and the lid) and leave to set. Dip a 2.5 cm leaf disc into 3 ml of treatment solution allowing the treatment to coat the leaf. Leave the disc to dry for 1 hour and place onto the set agar. Place insects (aphids or Plutella xylostella) onto each of the leaf discs. Each unit is sealed with a close-fitting, ventilated lid. Place the agar dishes in a small plastic tray lined with moist tissue paper and ensure the water trays in the bottom of the incubator are filled with clean water and place within the incubator. An assessment of mortality is made at 72, 96 and 120 hours. Leaf dip assays for Plutella xylostella were performed with SB-P-70, and compared to a negative control vehicle and a current commercial insecticide Chlorantraniliprole. The activity of SB-P-70 is shown in FIG. 6; SB-P-70 has good activity whilst being eco-friendly and targeted to specific pests unlike broad spectrum chemical insecticides such as Chlorantraniliprole"}},
  "data": [
    {"molecule": "CC(C)[C@H](NC(=O)C(NC(=O)[C@H](CCCCN)NC(=O)[C@H](CCC(N)=O)NC(=O)[C@@H](N)CCCNC(=N)N)[C@@H](C)O)C(=O)N[C@@H](Cc1ccccc1)C(=O)N[C@@H](CO)C(=O)N[C@@H](CO)C(=O)N[C@@H](Cc1c[nH]c2ccccc12)C(=O)NCC(N)=O", "note": "(stereo partly shown) [SB-P-65, Hy-RQKTVFSSWG-[NH2]]", "values": [
      {"measurement": "activity against Myzus persicae (mortality)", "setting": "Myzus persicae", "value": "good activity"}
    ]},
    {"molecule": "H-KVKFSAWG-NH2", "values": [
      {"measurement": "cleaved bond", "setting": "[1]", "value": "Ser5-Ala6, major"}
    ]},
    {"molecule": "H-KVKFSAWG-NH2 [SB-P-70, Hy-KVKFSAWG-[NH2]]", "values": [
      {"measurement": "activity against Spodoptera frugiperda (pupation and mortality)", "setting": "Spodoptera frugiperda", "value": "good activity"},
      {"measurement": "condition of the peptide after incubation with the tissue", "setting": "[2]", "value": "completely degraded"},
      {"measurement": "site of proteolytic cleavage", "setting": "[2]", "value": "between Ser5 and Ala6"},
      {"measurement": "activity against Plutella xylostella (mortality)", "setting": "Plutella xylostella", "value": "good activity"}
    ]},
    {"molecule": "H-PAFSSWG-NH2 [SB-P-66, Hy-PAFSSWG-[NH2]]", "values": [
      {"measurement": "activity against Myzus persicae (mortality)", "setting": "Myzus persicae", "value": "good activity"}
    ]}
  ]
}
